Test results taken from PMC5341858, “Molecular regulation of apoptotic machinery and lipid metabolism by mTORC1/mTORC2 dual inhibitors in preclinical models of HER2+/PIK3CAmut breast cancer” (Oncotarget, 2016).

How the values were obtained:
[1] = system: HER2-/PIK3CAwt HCC1806 breast tumor model; assay: In vivo antitumor efficacy, oral once daily; set-up: species or system mice; settings: HCC1806 tumors; even at the highest 40 mg/kg oral qd
Description: Animal studies were performed under protocols approved by Institutional Animal Care and Use Committee (IACUC) of Fudan University. Balbc female nude mice bearing MDA-MB-453, HCC1806 or 786-O tumors were staged at initial tumor volume of 150-200 mm^3 and randomized into treatment groups (n=/>8). […] Lapatinib and Sunitinib were formulated in 0.5% hydroxypropyl methyl cellulose (HPMC)-0.2% tween-80 as homogeneous suspension. All test agents were prepared twice weekly. Mice were dosed orally once daily (qd). Tumor growth inhibition rate (TGI) was calculated: TGI=[1-(Vt-Vi)/(Vc-Vi)]×100, where Vt: tumor volume of drug treated group, Vc: tumor volume of vehicle control group, Vi: initial tumor volume at staging. For biomarker studies, frozen tumors were made lysates and immunoblotted as previously described. For detecting apoptosis, tumors were excised, fixed in 4% formalin for 24 h and embedded in paraffin. […] The slides were blocked in Tris buffered saline with 5% BSA-0.3 M glycine and reacted with anti-CPT1A (Proteintech #15184-1-AP) or anti-P-ACL S455 (Abcam #59297) and detected with peroxidase-conjugated secondary antibody (Jackson # 111-035-003). […] Staining levels were analyzed on the basis of mean optical density quantified by software image pro plus 6.0.

[2] = target: T1, PAK4 (Homo sapiens, UniProt O96013); assay: KINOMEscan binding assay; settings: 1000 nM, percent control relative to vehicle
T1 construct: purchased DiscoveRx KINOMEscan
Source text: (§1) IC50 values were generated using Graphpad PRISM 5 software.

[3] = target: T2, PIK3C2B (Homo sapiens, UniProt O00750); assay: KINOMEscan binding assay; settings: 1000 nM, percent control relative to vehicle
T2 construct: purchased DiscoveRx KINOMEscan
Source text: as §1

[4] = target: T3, EGFR (L858R) (Homo sapiens, UniProt P00533, L858R); assay: KINOMEscan binding assay; settings: 1000 nM, percent control relative to vehicle
T3 construct: purchased DiscoveRx KINOMEscan
Source text: as §1

[5] = target: T4, MAP3K4 (Homo sapiens, UniProt Q9Y6R4); assay: KINOMEscan binding assay; settings: 1000 nM, percent control relative to vehicle
T4 construct: purchased DiscoveRx KINOMEscan
Source text: as §1

[6] = target: T5, DYRK1B (Homo sapiens, UniProt Q9Y463); assay: KINOMEscan binding assay; settings: 1000 nM, percent control relative to vehicle
T5 construct: purchased DiscoveRx KINOMEscan
Source text: as §1

[7] = target: T6, EPHA2 (Homo sapiens, UniProt P29317); assay: KINOMEscan binding assay; settings: 1000 nM, percent control relative to vehicle
T6 construct: purchased DiscoveRx KINOMEscan
Source text: as §1

[8] = target: T7, MKNK2 (Homo sapiens, UniProt Q9HBH9); assay: KINOMEscan binding assay; settings: 1000 nM, percent control relative to vehicle
T7 construct: purchased DiscoveRx KINOMEscan
T7 sequence (Q9HBH9 whole entry): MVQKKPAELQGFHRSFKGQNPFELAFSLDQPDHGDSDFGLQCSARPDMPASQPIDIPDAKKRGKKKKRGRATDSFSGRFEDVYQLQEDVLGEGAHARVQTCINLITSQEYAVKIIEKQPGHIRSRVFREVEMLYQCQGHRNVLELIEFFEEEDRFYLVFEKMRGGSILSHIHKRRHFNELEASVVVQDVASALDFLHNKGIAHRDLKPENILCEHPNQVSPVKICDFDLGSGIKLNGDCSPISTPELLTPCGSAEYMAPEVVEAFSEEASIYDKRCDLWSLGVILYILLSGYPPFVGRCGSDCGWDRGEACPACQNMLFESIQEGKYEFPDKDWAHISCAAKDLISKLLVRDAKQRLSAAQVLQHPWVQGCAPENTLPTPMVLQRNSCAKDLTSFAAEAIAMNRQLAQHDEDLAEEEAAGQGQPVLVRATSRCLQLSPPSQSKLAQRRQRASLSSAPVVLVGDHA
Source text: as §1

[9] = target: T8, INSR (Homo sapiens, UniProt P06213); assay: KINOMEscan binding assay; settings: 1000 nM, percent control relative to vehicle
T8 construct: purchased DiscoveRx KINOMEscan
Source text: as §1

[10] = target: T9, RAF1 (Homo sapiens, UniProt P04049); assay: KINOMEscan binding assay; settings: 1000 nM, percent control relative to vehicle
T9 construct: purchased DiscoveRx KINOMEscan
Source text: as §1

[11] = target: T10, JAK3 (JH1domain-catalytic) (Homo sapiens, UniProt P52333); assay: KINOMEscan binding assay; settings: 1000 nM, percent control relative to vehicle
T10 construct: JAK3 (JH1domain-catalytic); purchased DiscoveRx KINOMEscan
T10 sequence (P52333 813-1124 limits assumed): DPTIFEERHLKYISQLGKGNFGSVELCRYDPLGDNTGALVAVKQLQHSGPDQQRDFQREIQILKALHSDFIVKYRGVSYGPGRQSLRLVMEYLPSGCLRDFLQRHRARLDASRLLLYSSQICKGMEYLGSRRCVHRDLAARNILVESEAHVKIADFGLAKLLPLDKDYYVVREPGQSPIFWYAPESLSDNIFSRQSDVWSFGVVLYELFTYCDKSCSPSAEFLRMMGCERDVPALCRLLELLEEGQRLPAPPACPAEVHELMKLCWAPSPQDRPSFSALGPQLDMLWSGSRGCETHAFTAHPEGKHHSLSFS
Source text: as §1

[12] = target: T11, AKT1 (Homo sapiens, UniProt P31749); assay: KINOMEscan binding assay; settings: 1000 nM, percent control relative to vehicle
T11 construct: purchased DiscoveRx KINOMEscan
Source text: as §1

[13] = target: T12, KIT(D816V) (Homo sapiens, UniProt P10721, D816V); assay: KINOMEscan binding assay; settings: 1000 nM, percent control relative to vehicle
T12 construct: purchased DiscoveRx KINOMEscan
T12 sequence (P10721 26-976 D816V): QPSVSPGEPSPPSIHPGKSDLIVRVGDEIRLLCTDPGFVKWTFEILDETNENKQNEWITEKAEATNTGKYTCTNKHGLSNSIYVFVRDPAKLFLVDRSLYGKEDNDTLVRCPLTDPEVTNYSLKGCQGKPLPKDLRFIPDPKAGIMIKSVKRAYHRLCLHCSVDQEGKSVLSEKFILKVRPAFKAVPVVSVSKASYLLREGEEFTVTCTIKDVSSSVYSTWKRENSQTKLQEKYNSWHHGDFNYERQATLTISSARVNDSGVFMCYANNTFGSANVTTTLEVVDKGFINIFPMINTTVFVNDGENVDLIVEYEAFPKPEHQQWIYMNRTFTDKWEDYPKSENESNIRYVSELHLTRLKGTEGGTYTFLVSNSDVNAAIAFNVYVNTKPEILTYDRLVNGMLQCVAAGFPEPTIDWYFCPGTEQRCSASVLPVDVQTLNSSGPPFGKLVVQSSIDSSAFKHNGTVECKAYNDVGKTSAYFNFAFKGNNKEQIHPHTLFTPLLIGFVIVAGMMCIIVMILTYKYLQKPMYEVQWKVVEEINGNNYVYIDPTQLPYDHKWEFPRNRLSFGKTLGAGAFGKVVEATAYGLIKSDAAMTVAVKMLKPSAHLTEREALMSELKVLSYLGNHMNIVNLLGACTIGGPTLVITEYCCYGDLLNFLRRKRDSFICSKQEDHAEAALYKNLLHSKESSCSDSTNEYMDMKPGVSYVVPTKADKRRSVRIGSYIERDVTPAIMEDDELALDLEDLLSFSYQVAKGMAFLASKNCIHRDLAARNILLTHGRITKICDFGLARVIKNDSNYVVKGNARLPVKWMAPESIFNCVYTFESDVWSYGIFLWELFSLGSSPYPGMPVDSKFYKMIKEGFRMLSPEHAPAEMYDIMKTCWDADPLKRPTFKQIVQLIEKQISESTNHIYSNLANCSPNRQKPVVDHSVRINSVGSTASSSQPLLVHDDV
Source text: as §1

[14] = target: T13, GSK3B (Homo sapiens, UniProt P49841); assay: KINOMEscan binding assay; settings: 1000 nM, percent control relative to vehicle
T13 construct: purchased DiscoveRx KINOMEscan
Source text: as §1

[15] = target: T14, BRAF (V600E) (Homo sapiens, UniProt P15056, V600E); assay: KINOMEscan binding assay; settings: 1000 nM, percent control relative to vehicle
T14 construct: purchased DiscoveRx KINOMEscan
T14 sequence (P15056 whole entry V600E): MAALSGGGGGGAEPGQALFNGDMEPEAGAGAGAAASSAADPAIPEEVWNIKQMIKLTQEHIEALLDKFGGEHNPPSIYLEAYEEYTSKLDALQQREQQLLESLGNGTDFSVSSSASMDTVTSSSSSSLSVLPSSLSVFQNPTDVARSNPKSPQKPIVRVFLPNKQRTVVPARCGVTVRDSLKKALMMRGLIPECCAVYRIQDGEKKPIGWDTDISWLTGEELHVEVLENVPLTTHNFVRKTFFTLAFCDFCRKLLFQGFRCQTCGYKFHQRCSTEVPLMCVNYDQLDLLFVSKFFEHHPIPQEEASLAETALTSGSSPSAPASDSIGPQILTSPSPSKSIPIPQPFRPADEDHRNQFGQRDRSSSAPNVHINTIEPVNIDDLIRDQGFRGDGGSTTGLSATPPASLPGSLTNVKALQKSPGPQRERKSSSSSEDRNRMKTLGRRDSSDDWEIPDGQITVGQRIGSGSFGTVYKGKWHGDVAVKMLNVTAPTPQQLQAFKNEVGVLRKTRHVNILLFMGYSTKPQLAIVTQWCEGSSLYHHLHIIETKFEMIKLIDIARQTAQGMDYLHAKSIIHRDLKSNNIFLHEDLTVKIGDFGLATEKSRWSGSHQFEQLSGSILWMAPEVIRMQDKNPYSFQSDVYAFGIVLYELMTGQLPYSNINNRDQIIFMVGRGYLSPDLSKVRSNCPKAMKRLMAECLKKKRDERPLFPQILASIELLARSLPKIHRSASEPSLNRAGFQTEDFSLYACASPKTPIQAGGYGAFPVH
Source text: as §1

[16] = target: T15, RSK2 (Kin.Dom.1-N- terminal) (Homo sapiens, UniProt P51812); assay: KINOMEscan binding assay; settings: 1000 nM, percent control relative to vehicle
T15 construct: RSK2 (Kin.Dom.1-N- terminal); purchased DiscoveRx KINOMEscan
T15 sequence (P51812 1-397 limits assumed): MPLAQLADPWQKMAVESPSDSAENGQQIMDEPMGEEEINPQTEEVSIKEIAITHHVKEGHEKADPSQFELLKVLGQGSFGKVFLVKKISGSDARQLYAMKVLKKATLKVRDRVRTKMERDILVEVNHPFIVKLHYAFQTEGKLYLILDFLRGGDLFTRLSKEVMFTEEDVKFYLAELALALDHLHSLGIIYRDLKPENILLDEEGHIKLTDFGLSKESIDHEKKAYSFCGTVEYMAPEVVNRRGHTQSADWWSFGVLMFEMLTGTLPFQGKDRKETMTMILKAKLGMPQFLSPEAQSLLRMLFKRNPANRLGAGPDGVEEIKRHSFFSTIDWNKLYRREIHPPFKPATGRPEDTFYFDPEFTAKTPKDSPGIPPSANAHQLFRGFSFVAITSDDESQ
Source text: as §1

[17] = target: T16, ERBB4 (Homo sapiens, UniProt Q15303); assay: KINOMEscan binding assay; settings: 1000 nM, percent control relative to vehicle
T16 construct: purchased DiscoveRx KINOMEscan
Source text: as §1

[18] = target: T17, MARK3 (Homo sapiens, UniProt P27448); assay: KINOMEscan binding assay; settings: 1000 nM, percent control relative to vehicle
T17 construct: purchased DiscoveRx KINOMEscan
Source text: as §1

[19] = target: T18, AKT2 (Homo sapiens, UniProt P31751); assay: KINOMEscan binding assay; settings: 1000 nM, percent control relative to vehicle
T18 construct: purchased DiscoveRx KINOMEscan
Source text: as §1

[20] = target: T19, MEK1 (Homo sapiens, UniProt Q02750); assay: KINOMEscan binding assay; settings: 1000 nM, percent control relative to vehicle
T19 construct: purchased DiscoveRx KINOMEscan
Source text: as §1

[21] = target: T20, BMPR2 (Homo sapiens, UniProt Q13873); assay: KINOMEscan binding assay; settings: 1000 nM, percent control relative to vehicle
T20 construct: purchased DiscoveRx KINOMEscan
Source text: as §1

[22] = target: T21, MLK1 (Homo sapiens, UniProt P80192); assay: KINOMEscan binding assay; settings: 1000 nM, percent control relative to vehicle
T21 construct: purchased DiscoveRx KINOMEscan
Source text: as §1

[23] = target: T22, FAK (Homo sapiens, UniProt Q05397); assay: KINOMEscan binding assay; settings: 1000 nM, percent control relative to vehicle
T22 construct: purchased DiscoveRx KINOMEscan
T22 sequence (Q05397 whole entry): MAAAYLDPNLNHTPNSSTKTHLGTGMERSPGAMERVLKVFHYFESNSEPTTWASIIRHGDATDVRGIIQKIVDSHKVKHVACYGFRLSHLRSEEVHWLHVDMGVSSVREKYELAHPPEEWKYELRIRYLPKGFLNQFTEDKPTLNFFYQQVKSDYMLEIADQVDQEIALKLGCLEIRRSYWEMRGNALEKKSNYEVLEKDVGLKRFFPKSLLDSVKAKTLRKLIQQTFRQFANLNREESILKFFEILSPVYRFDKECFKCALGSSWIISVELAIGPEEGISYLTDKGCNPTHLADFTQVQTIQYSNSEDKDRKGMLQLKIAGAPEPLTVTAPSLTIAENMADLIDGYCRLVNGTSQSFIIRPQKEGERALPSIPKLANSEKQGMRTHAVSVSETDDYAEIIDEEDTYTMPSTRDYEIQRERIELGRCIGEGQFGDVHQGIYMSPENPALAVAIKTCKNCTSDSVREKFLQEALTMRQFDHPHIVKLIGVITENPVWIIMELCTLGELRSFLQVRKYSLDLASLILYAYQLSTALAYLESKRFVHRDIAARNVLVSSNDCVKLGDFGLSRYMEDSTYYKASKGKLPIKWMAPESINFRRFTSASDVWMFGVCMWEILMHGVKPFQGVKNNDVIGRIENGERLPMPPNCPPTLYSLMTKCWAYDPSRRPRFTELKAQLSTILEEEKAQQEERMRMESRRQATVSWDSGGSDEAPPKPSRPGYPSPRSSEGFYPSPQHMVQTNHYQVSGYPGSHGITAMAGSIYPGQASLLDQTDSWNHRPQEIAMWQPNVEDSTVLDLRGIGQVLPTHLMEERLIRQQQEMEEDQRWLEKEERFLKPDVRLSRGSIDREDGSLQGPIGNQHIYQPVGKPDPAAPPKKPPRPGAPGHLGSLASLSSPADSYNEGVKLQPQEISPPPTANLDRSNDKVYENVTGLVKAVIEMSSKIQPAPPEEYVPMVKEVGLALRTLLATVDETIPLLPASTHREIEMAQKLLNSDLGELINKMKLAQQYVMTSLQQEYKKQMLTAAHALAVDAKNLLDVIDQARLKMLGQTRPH
Source text: as §1

[24] = target: T23, AURKA (Homo sapiens, UniProt O14965); assay: KINOMEscan binding assay; settings: 1000 nM, percent control relative to vehicle
T23 construct: purchased DiscoveRx KINOMEscan
Source text: as §1

[25] = target: T24, JNK3 (Homo sapiens, UniProt P53779); assay: KINOMEscan binding assay; settings: 1000 nM, percent control relative to vehicle
T24 construct: purchased DiscoveRx KINOMEscan
Source text: as §1

[26] = target: T25, TIE2 (Homo sapiens, UniProt Q02763); assay: KINOMEscan binding assay; settings: 1000 nM, percent control relative to vehicle
T25 construct: purchased DiscoveRx KINOMEscan
Source text: as §1

[27] = target: T26, MKNK1 (Homo sapiens, UniProt Q9BUB5); assay: KINOMEscan binding assay; settings: 1000 nM, percent control relative to vehicle
T26 construct: purchased DiscoveRx KINOMEscan
T26 sequence (Q9BUB5 whole entry): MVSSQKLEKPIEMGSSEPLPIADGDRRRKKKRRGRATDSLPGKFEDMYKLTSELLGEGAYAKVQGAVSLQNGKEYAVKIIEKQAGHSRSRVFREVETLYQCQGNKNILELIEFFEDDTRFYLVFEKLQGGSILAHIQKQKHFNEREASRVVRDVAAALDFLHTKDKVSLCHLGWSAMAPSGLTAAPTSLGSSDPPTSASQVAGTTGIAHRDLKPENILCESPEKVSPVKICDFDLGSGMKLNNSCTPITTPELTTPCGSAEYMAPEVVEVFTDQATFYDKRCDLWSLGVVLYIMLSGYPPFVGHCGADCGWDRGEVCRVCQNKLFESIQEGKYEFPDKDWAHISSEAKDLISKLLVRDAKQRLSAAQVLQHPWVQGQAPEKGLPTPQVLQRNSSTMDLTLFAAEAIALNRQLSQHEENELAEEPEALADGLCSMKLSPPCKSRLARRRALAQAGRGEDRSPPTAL
Source text: as §1

[28] = target: T27, PDPK1 (Homo sapiens, UniProt O15530); assay: KINOMEscan binding assay; settings: 1000 nM, percent control relative to vehicle
T27 construct: purchased DiscoveRx KINOMEscan
T27 sequence (O15530 whole entry): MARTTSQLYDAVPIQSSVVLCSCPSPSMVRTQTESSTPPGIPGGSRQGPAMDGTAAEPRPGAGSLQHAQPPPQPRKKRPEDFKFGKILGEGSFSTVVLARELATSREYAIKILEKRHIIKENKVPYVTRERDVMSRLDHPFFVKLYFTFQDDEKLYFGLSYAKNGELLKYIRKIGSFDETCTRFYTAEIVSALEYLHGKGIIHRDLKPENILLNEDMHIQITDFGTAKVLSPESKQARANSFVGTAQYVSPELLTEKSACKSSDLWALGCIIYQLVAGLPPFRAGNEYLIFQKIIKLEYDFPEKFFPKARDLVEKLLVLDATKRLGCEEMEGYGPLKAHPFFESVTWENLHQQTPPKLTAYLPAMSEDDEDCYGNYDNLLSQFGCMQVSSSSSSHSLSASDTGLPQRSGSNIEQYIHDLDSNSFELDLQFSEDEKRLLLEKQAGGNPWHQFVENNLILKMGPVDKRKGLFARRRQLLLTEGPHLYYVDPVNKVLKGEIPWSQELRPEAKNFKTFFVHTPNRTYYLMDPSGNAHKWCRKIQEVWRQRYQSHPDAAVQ
Source text: as §1

[29] = target: T28, MAPKAPK2 (Homo sapiens, UniProt P49137); assay: KINOMEscan binding assay; settings: 1000 nM, percent control relative to vehicle
T28 construct: purchased DiscoveRx KINOMEscan
Source text: as §1

[30] = target: T29, JNK1 (Homo sapiens, UniProt P45983); assay: KINOMEscan binding assay; settings: 1000 nM, percent control relative to vehicle
T29 construct: purchased DiscoveRx KINOMEscan
Source text: as §1

[31] = target: T30, ABL1-phosphorylated (Homo sapiens, UniProt P00519); assay: KINOMEscan binding assay; settings: 1000 nM, percent control relative to vehicle
T30 construct: purchased DiscoveRx KINOMEscan
Source text: as §1

[32] = target: T31, YANK3 (Homo sapiens, UniProt Q86UX6); assay: KINOMEscan binding assay; settings: 1000 nM, percent control relative to vehicle
T31 construct: purchased DiscoveRx KINOMEscan
Source text: as §1

[33] = target: T32, PIM2 (Homo sapiens, UniProt Q9P1W9); assay: KINOMEscan binding assay; settings: 1000 nM, percent control relative to vehicle
T32 construct: purchased DiscoveRx KINOMEscan
Source text: as §1

`CNC(=O)c1cccc(-c2ccc3c(N4C5CCC4COC5)nc(N4CCOC[C@@H]4C)nc3n2)c1` [MTI-31] was tested, and the antitumor efficacy [1] was “limited efficacy”, the “% Control” value [2] was 100% and the “% Control” value [3] was 100%. The “% Control” value [4] was 100%, the “% Control” value [5] was 100% and the “% Control” value [6] was 100%. The “% Control” value [7] was 98%, the “% Control” value [8] was 100% and the “% Control” value [9] was 100%. The “% Control” value [10] was 82%, the “% Control” value [11] was 82% and the “% Control” value [12] was 100%. The “% Control” value [13] was 97%, the “% Control” value [14] was 56% and the “% Control” value [15] was 93%. For the same compound, the “% Control” value [16] was 78%, the “% Control” value [17] was 100% and the “% Control” value [18] was 71%. The “% Control” value [19] was 94%, the “% Control” value [20] was 73% and the “% Control” value [21] was 88%. For the same compound, the “% Control” value [22] was 100%, the “% Control” value [23] was 89% and the “% Control” value [24] was 97%. For the same compound, the “% Control” value [25] was 96%, the “% Control” value [26] was 100% and the “% Control” value [27] was 90%. The “% Control” value [28] was 97%, the “% Control” value [29] was 87% and the “% Control” value [30] was 81%. The “% Control” value [31] was 70%, the “% Control” value [32] was 85% and the “% Control” value [33] was 92%.
